Results taken from patent US5336686A, “17 Methylene lactones of steroids” (Roussel-Uclaf, priority 1992, dated 1994).

Legend:
[1] = system: Thymocytes of suprarenalectomized rats; test: Antiglucocorticoid activity: tritiated uridine incorporation in thymocytes with dexamethasone; format: cell-based, rat; settings: for inhibition at 1 µM / inhibition at 0.1 µM / inhibition at 0.01 µM: Rattus norvegicus, Thymocyte, 5.10^-8 M dexamethasone, 37° C., 3 hours, read-out: % inhibition of the effect of the Dexamethasone; for inhibition at 1 µM: product at 10^-6 M; for inhibition at 0.1 µM: product at 10^-7 M; for inhibition at 0.01 µM: product at 10^-8 M
Description: The technique used was derived from the method of Dausse et al, Molecular Pharmacology, Vol. 13, p. 948-955 (1977) ("the relationship between glucocorticoid structure and effects upon Thymocytes"), for the thymocytes of mice. Thymocytes of suprarenalectomized rats were incubated at 37° C. for 3 hours in a nutritive medium containing 5.10^-8 M of dexamethasone in the presence or not of a product to be studied at different concentrations. Tritiated uridine was added, and the incubation was continued for one hour. The incubates were cooled, treated with a 5% solution of trichloroacetic acid, filtered on Whatman GF/A paper and washed three times using a solution of 5% trichloroacetic acid. The radioactivity retained by the filter paper was determined.

[2] = biological target: T1, Progestogen Receptor of Rabbit's Uterus (Oryctolagus cuniculus, UniProt P06186); test: Progestogen receptor of rabbit's uterus, relative bond affinity (RBA); format: binding; settings: vs tritiated Product R; for relative bond affinity (RBA), Progestogen, 2 H: incubation 2 H at 0° C.; for relative bond affinity (RBA), Progestogen, 24 H: incubation 24 H at 0° C.
T1 construct: The uteri were removed, weighed and homogenized at 0° C; from tissue; host or cells: uterus of estradiol-treated impubic rabbits, 105,000 g supernatant (cytosol)
T1 sequence (P06186 1-930): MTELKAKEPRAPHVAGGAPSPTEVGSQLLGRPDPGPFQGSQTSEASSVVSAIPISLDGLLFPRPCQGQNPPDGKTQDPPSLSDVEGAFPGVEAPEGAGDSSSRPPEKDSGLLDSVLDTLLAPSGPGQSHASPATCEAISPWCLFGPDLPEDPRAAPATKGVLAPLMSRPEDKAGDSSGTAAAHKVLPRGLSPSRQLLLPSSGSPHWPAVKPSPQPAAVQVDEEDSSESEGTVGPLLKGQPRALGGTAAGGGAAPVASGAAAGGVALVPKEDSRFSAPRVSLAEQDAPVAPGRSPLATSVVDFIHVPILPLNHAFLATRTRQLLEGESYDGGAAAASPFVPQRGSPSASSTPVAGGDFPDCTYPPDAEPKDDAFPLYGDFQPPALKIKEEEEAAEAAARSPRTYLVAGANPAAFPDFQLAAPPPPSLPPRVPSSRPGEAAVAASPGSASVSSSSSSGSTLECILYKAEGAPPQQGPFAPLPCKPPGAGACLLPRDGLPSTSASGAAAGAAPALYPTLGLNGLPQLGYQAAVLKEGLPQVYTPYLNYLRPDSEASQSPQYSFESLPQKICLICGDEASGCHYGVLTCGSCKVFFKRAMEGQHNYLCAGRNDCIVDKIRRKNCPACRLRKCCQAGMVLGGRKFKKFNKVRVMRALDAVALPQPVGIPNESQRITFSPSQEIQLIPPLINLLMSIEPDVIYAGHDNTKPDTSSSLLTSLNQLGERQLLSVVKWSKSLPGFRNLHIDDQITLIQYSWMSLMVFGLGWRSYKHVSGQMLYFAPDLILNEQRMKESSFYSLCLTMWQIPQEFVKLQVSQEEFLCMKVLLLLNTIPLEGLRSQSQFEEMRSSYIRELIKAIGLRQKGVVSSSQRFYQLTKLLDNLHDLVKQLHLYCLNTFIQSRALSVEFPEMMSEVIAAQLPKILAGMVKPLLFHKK
Description: Impubic rabbits weighing about 1 kg received a cutaneous application of […] of estradiol and 5 days after this treatment, the animals were killed. The uteri were removed, weighed and homogenized at 0° C., using a Potter teflon flask in a buffered TS solution (10 mM Tris, 0.25 M saccharose, HCl pH 7.4) (1 g of tissue per 50 ml of TS). The homogenate was then ultracentrifuged (105,000 g×90 min) at 0° C. The aliquots of the supernatant were incubated at 0° C. for a time t, with a constant concentration (T) of tritiated Product R (17,21-dimethyl-19-nor-Δ^4,9 -pregnadiene-3,20-dione) in the presence of increasing concentrations (0-2,500×10^-9 M) either of cold R, or of cold progesterone, or of cold product to be tested. The concentration of bound tritiated R (B) was then measured in each incubate by the technique of adsorption with carbon dextran.
(§1) The calculation of the relative bond affinity (RBA) was identical for both receptors.
(§2) The following 2 curves were drawn: the percentage of bound tritiated hormone B/T as a function of the logarithm of the concentration of the cold reference hormone and B/T as a function of the logarithm of the concentration of the cold tested product. The straight line of the equation [formula] was determined. B/T max=Percentage of bound tritiated hormone for an incubation of this tritiated hormone at the concentration (T).
(§3) B/T min=Percentage of the bound tritiated hormone for an incubation of this tritiated hormone at the concentration (T) in the presence of a large excess of cold hormone (2,500×10^-9 M).
(§4) The intersections of the straight line I50 and the curves enabled the concentrations of cold reference hormone (CH) and cold tested product (CX) which inhibited the bonding of the tritiated hormone on the receptor by 50% to be evaluated.
(§5) The relative bond affinity (RBA) of the tested product was determined by the equation: [formula]

[3] = biological target: T2, Glucocorticoid Receptor of Rat's Thymus (Rattus norvegicus, UniProt P06536); test: Glucocorticoid receptor of rat's thymus, relative bond affinity (RBA); format: binding; settings: vs tritiated dexamethasone; for relative bond affinity (RBA), Glucocorticoid, 4 H: incubation 4 H at 0° C.; for relative bond affinity (RBA), Glucocorticoid, 24 H: incubation 24 H at 0° C.
T2 construct: The thymuses were removed and homogenized at 0° C; from tissue; host or cells: thymus of adrenalectomized male Sprague-Dawley rats, 105,000 g supernatant (cytosol)
T2 sequence (P06536 1-795): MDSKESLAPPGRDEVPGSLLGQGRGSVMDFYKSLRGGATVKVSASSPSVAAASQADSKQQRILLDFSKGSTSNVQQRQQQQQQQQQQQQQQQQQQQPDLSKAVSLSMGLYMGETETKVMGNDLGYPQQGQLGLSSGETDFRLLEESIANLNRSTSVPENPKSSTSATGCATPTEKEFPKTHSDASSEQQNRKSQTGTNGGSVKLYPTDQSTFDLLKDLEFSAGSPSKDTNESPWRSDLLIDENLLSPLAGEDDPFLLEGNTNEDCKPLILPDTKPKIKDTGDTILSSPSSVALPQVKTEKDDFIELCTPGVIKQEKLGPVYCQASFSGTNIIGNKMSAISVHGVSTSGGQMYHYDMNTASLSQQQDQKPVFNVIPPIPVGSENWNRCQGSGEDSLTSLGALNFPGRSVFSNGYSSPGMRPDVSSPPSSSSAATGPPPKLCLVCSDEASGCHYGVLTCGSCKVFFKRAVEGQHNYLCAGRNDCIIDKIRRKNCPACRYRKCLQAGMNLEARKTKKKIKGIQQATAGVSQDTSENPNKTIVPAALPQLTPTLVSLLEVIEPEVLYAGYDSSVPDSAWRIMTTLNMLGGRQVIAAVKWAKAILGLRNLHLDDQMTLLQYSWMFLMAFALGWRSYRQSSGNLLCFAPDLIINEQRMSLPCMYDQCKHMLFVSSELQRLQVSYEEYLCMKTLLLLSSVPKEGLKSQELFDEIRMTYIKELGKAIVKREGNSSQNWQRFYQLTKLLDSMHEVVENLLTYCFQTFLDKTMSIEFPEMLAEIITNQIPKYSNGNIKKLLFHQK
Description: Male Sprague-Dawley EOPS rats weighing 160 to 200 g were suprarenalectomized and 4 to 8 days after this removal, the animals were killed. The thymuses were removed and homogenized at 0° C. in a 10 mM Tris, 0.15M saccharose, 2 mM dithiothreitol, HCl pH 7.4 buffer using a Potter polytetra-fluoroethylene flask (1 g of tissue per 10 ml of TS). The homogenate was ultracentrifuged (105,000 g×90 min) at 0° C. and the aliquots of the supernatant were incubated at 0° C. for a time (t) with a constant concentration (T) of tritiated dexamethasone in the presence of increasing concentrations (0-2,500×10^-9 M)either of cold dexamethasone, or the cold product to be tested. The concentration of the bound tritiated dexamethasone (B) was measured in each incubate by the technique of adsorption with carbon dextran.
as §1, §2, §3, §4, §5

relative bond affinity (RBA), Progestogen, 2 H [2] | relative bond affinity (RBA), Progestogen, 24 H [2] | relative bond affinity (RBA), Glucocorticoid, 4 H [3] | relative bond affinity (RBA), Glucocorticoid, 24 H [3] | Structure (SMILES) | inhibition at 1 µM [1] | inhibition at 0.1 µM [1] | inhibition at 0.01 µM [1] | incorporation of tritiated uridine ([1]; effect of dexamethasone itself, in words)
 |  |  |  | C=C1C[C@@]2(CC[C@H]3[C@@H]4CCC5=CC(=O)CCC5=C4[C@@H](c4ccc(SC)cc4)C[C@@]32C)OC1=O [Example 3, γ-lactone of 11β-[4-(methylthio)phenyl]21-methylene 19-nor-17α-Δ^4,9-pregnadiene-17β-ol-3-one-21-carboxylic acid] | 133% | 69% | 24% | 
 |  |  |  | C[C@@H]1C[C@H]2[C@@H]3CCC4=CC(=O)C=C[C@]4(C)[C@@]3(F)[C@@H](O)C[C@]2(C)[C@@]1(O)C(=O)CO [dexamethasone, reference compound] |  |  |  | decrease
86 | 36 | 136 | 59 | C=C1C[C@]2(CC[C@H]3[C@@H]4CCC5=CC(=O)CCC5=C4[C@@H](c4ccc(N(C)C)cc4)C[C@@]32C)OC1=O [Example 2, γ-Lactone of 11β-[4-(dimethylamino)phenyl]21methylene-19-nor 17β-Δ^4,9-pregnadiene-17α-ol-3-one-21-carboxylic acid] |  |  |  | 
32 | 21 | 135 | 94 | C=C1C[C@@]2(CC[C@H]3[C@@H]4CCC5=CC(=O)CCC5=C4[C@@H](c4ccc(N(C)C)cc4)C[C@@]32C)OC1=O [Example 1, γ-lactone of 11β-[4-(dimethylamino)phenyl] 21-methylene 19-nor 17α-Δ^4,9-pregnadiene-17β-ol-3-one-21-carboxylic acid] | 116% | 104% | 71% | 
